Values of other authors in patent US20230172854A1 (UNIWERSYTET HUMANISTYCZNO-PRZYRODNICZY IM JANA DLUGOSZA W …, priority 2020, published 2023).

Details: estimated

- bioavailability: 25%
SMILES: CCCCC(=O)N(Cc1ccc(-c2ccccc2-c2nnn[nH]2)cc1)[C@H](C(=O)O)C(C)C [valsartan]
